Results from publication PMC9856672, “SGC-CAMKK2-1: A Chemical Probe for CAMKK2” (Cells, 2023).

Experiments:
CHEK1 = biological target: T1, CHEK1 (Homo sapiens, UniProt O14757); assay: KINOMEscan 1 μM, CHEK1; format: binding; settings: 1000 nM; Entrez CHEK1; read-out: Percent Control
T1 construct: purchased Eurofins DiscoverX KINOMEscan
Source text: (§1) Supplement cells-12-00287-s001.zip/File S2. KinomeScan data for the CAMKK2 probe and negative control.xlsx, sheet "SGC-CAMKK2-1" | column: Percent Control

GRK2 = biological target: T2, GRK2 (Homo sapiens, UniProt P25098); assay: KINOMEscan 1 μM, GRK2; format: binding; settings: 1000 nM; Entrez ADRBK1; read-out: Percent Control
T2 construct: purchased Eurofins DiscoverX KINOMEscan
Source text: as §1

BRAF(V600E) = biological target: T3, BRAF(V600E) (Homo sapiens, UniProt P15056, V600E); assay: KINOMEscan 1 μM, BRAF(V600E); format: binding; settings: 1000 nM; Entrez BRAF; read-out: Percent Control
T3 construct: purchased Eurofins DiscoverX KINOMEscan
Source text: as §1

TLK2 = biological target: T4, TLK2 (Homo sapiens, UniProt Q86UE8); assay: DiscoverX KINOMEscan binding assay at 1 μM, TLK2; settings: Compound Concentration 1000 nM, read-out: Percent Control
T4 construct: purchased Eurofins DiscoverX KINOMEscan
Source text: as §1

MET = biological target: T5, MET (Homo sapiens, UniProt P08581); assay: KINOMEscan 1 μM, MET; format: binding; settings: 1000 nM; Entrez MET; read-out: Percent Control
T5 construct: purchased Eurofins DiscoverX KINOMEscan
Source text: as §1

PIK3CA(E545K) = biological target: T6, PIK3CA(E545K) (Homo sapiens, UniProt P42336, E545K); assay: KINOMEscan 1 μM, PIK3CA(E545K); format: binding; settings: 1000 nM; Entrez PIK3CA; read-out: Percent Control
T6 construct: purchased Eurofins DiscoverX KINOMEscan
Source text: as §1

NEK7 = biological target: T7, NEK7 (Homo sapiens, UniProt Q8TDX7); assay: KINOMEscan 1 μM, NEK7; format: binding; settings: 1000 nM; Entrez NEK7; read-out: Percent Control
T7 construct: purchased Eurofins DiscoverX KINOMEscan
Source text: as §1

CLK2 = biological target: T8, CLK2 (Homo sapiens, UniProt P49760); assay: KINOMEscan 1 μM, CLK2; format: binding; settings: 1000 nM; Entrez CLK2; read-out: Percent Control
T8 construct: purchased Eurofins DiscoverX KINOMEscan
Source text: as §1

DCAMKL2 = biological target: T9, DCAMKL2 (Homo sapiens, UniProt Q8N568); assay: KINOMEscan 1 μM, DCAMKL2; format: binding; settings: 1000 nM; Entrez DCLK2; read-out: Percent Control
T9 construct: purchased Eurofins DiscoverX KINOMEscan
Source text: as §1

DDR1 = biological target: T10, DDR1 (Homo sapiens, UniProt Q08345); assay: KINOMEscan 1 μM, DDR1; format: binding; settings: 1000 nM; Entrez DDR1; read-out: Percent Control
T10 construct: purchased Eurofins DiscoverX KINOMEscan
Source text: as §1

KIT(V559D,V654A) = biological target: T11, KIT(V559D,V654A) (Homo sapiens, UniProt P10721, V559D/V654A); assay: KINOMEscan 1 μM, KIT(V559D,V654A); format: binding; settings: 1000 nM; Entrez KIT; read-out: Percent Control
T11 construct: purchased Eurofins DiscoverX KINOMEscan
Source text: as §1

PRKCD = biological target: T12, PRKCD (Homo sapiens, UniProt Q05655); assay: DiscoverX KINOMEscan binding assay at 1 μM, PRKCD; settings: Compound Concentration 1000 nM, read-out: Percent Control
T12 construct: purchased Eurofins DiscoverX KINOMEscan
Source text: as §1

CDK11 = biological target: T13, CDK11 (Homo sapiens, UniProt Q9BWU1); assay: KINOMEscan 1 μM, CDK11; format: binding; settings: 1000 nM; Entrez CDK19; read-out: Percent Control
T13 construct: purchased Eurofins DiscoverX KINOMEscan
Source text: as §1

PKN1 = biological target: T14, PKN1 (Homo sapiens, UniProt Q16512); assay: KINOMEscan 1 μM, PKN1; format: binding; settings: 1000 nM; Entrez PKN1; read-out: Percent Control
T14 construct: purchased Eurofins DiscoverX KINOMEscan
Source text: as §1

TGFBR2 = biological target: T15, TGFBR2 (Homo sapiens, UniProt P37173); assay: KINOMEscan binding assay at 1 μM, TGFBR2; settings: Compound Concentration 1000 nM; read-out: Percent Control
T15 construct: purchased Eurofins DiscoverX KINOMEscan
Source text: (§2) Supplement cells-12-00287-s001.zip/File S2. KinomeScan data for the CAMKK2 probe and negative control.xlsx, sheet "SGC-CAMKK2-1N" | column: Percent Control

YSK1 = biological target: T16, YSK1 (Homo sapiens, UniProt O00506); assay: KINOMEscan at 1 μM, YSK1; format: binding; settings: 1000 nM, read-out: Percent Control
T16 construct: purchased Eurofins DiscoverX KINOMEscan
Source text: as §2

KIT = biological target: T17, KIT (Homo sapiens, UniProt P10721); assay: KINOMEscan at 1 μM, KIT; format: binding; settings: 1000 nM, read-out: Percent Control
T17 construct: purchased Eurofins DiscoverX KINOMEscan
Source text: as §2

MLK1 = biological target: T18, MLK1 (Homo sapiens, UniProt P80192); assay: KINOMEscan at 1 μM, MLK1; format: binding; settings: 1000 nM, read-out: Percent Control
T18 construct: purchased Eurofins DiscoverX KINOMEscan
Source text: as §2

EPHB4 = biological target: T19, EPHB4 (Homo sapiens, UniProt P54760); assay: KINOMEscan at 1 μM, EPHB4; format: binding; settings: 1000 nM, read-out: Percent Control
T19 construct: purchased Eurofins DiscoverX KINOMEscan
Source text: as §2

FLT3(R834Q) = biological target: T20, FLT3(R834Q) (Homo sapiens, UniProt P36888, R834Q); assay: KINOMEscan at 1 μM, FLT3(R834Q); format: binding; settings: 1000 nM, read-out: Percent Control
T20 construct: purchased Eurofins DiscoverX KINOMEscan
Source text: as §2

TIE1 = biological target: T21, TIE1 (Homo sapiens, UniProt P35590); assay: KINOMEscan binding assay at 1 μM, TIE1; settings: Compound Concentration 1000 nM; read-out: Percent Control
T21 construct: purchased Eurofins DiscoverX KINOMEscan
Source text: as §2

RAF1 = biological target: T22, RAF1 (Homo sapiens, UniProt P04049); assay: KINOMEscan at 1 μM, RAF1; format: binding; settings: 1000 nM, read-out: Percent Control
T22 construct: purchased Eurofins DiscoverX KINOMEscan
Source text: as §2

MST3 = biological target: T23, MST3 (Homo sapiens, UniProt Q9Y6E0); assay: KINOMEscan binding assay at 1 μM, MST3; settings: Compound Concentration 1000 nM; read-out: Percent Control
T23 construct: purchased Eurofins DiscoverX KINOMEscan
Source text: as §2

FLT1 = biological target: T24, FLT1 (Homo sapiens, UniProt P17948); assay: KINOMEscan at 1 μM, FLT1; format: binding; settings: 1000 nM, read-out: Percent Control
T24 construct: purchased Eurofins DiscoverX KINOMEscan
Source text: as §2

HIPK1 = biological target: T25, HIPK1 (Homo sapiens, UniProt Q86Z02); assay: KINOMEscan at 1 μM, HIPK1; format: binding; settings: 1000 nM, read-out: Percent Control
T25 construct: purchased Eurofins DiscoverX KINOMEscan
Source text: as §2

[1] = biological target: T26, ABL1(E255K)-phosphorylated (Homo sapiens, UniProt P00519, E255K); assay: KINOMEscan at 1 μM, ABL1(E255K)-phosphorylated; format: binding; settings: 1000 nM, read-out: Percent Control
T26 construct: purchased Eurofins DiscoverX KINOMEscan
Source text: as §2

AAK1 = biological target: T27, AAK1 (Homo sapiens, UniProt Q2M2I8); assay: KINOMEscan at 1 μM, AAK1; format: binding; settings: 1000 nM, read-out: Percent Control
T27 construct: purchased Eurofins DiscoverX KINOMEscan
Source text: as §2

[2] = biological target: T28, RSK1(Kin.Dom.1-N-terminal) (Homo sapiens, UniProt Q15418); assay: KINOMEscan at 1 μM, RSK1(Kin.Dom.1-N-terminal); format: binding; settings: 1000 nM, read-out: Percent Control
T28 construct: RSK1(Kin.Dom.1-N-terminal); purchased Eurofins DiscoverX KINOMEscan
Source text: as §2

TIE2 = biological target: T29, TIE2 (Homo sapiens, UniProt Q02763); assay: KINOMEscan at 1 μM, TIE2; format: binding; settings: 1000 nM, read-out: Percent Control
T29 construct: purchased Eurofins DiscoverX KINOMEscan
Source text: as §2

MET(M1250T) = biological target: T30, MET(M1250T) (Homo sapiens, UniProt P08581, M1250T); assay: KINOMEscan binding assay at 1 μM, MET(M1250T); settings: Compound Concentration 1000 nM; read-out: Percent Control
T30 construct: purchased Eurofins DiscoverX KINOMEscan
Source text: as §2

ERK4 = biological target: T31, ERK4 (Homo sapiens, UniProt P31152); assay: KINOMEscan at 1 μM, ERK4; format: binding; settings: 1000 nM, read-out: Percent Control
T31 construct: purchased Eurofins DiscoverX KINOMEscan
Source text: as §2

INSRR = biological target: T32, INSRR (Homo sapiens, UniProt P14616); assay: KINOMEscan at 1 μM, INSRR; format: binding; settings: 1000 nM, read-out: Percent Control
T32 construct: purchased Eurofins DiscoverX KINOMEscan
Source text: as §2

[3] = biological target: T33, RSK3(Kin.Dom.2-C-terminal) (Homo sapiens, UniProt Q15349); assay: KINOMEscan at 1 μM, RSK3(Kin.Dom.2-C-terminal); format: binding; settings: 1000 nM, read-out: Percent Control
T33 construct: RSK3(Kin.Dom.2-C-terminal); purchased Eurofins DiscoverX KINOMEscan
Source text: as §2

TBK1 = biological target: T34, TBK1 (Homo sapiens, UniProt Q9UHD2); assay: KINOMEscan at 1 μM, TBK1; format: binding; settings: 1000 nM, read-out: Percent Control
T34 construct: purchased Eurofins DiscoverX KINOMEscan
Source text: as §2

T25 sequence (Q86Z02 whole entry): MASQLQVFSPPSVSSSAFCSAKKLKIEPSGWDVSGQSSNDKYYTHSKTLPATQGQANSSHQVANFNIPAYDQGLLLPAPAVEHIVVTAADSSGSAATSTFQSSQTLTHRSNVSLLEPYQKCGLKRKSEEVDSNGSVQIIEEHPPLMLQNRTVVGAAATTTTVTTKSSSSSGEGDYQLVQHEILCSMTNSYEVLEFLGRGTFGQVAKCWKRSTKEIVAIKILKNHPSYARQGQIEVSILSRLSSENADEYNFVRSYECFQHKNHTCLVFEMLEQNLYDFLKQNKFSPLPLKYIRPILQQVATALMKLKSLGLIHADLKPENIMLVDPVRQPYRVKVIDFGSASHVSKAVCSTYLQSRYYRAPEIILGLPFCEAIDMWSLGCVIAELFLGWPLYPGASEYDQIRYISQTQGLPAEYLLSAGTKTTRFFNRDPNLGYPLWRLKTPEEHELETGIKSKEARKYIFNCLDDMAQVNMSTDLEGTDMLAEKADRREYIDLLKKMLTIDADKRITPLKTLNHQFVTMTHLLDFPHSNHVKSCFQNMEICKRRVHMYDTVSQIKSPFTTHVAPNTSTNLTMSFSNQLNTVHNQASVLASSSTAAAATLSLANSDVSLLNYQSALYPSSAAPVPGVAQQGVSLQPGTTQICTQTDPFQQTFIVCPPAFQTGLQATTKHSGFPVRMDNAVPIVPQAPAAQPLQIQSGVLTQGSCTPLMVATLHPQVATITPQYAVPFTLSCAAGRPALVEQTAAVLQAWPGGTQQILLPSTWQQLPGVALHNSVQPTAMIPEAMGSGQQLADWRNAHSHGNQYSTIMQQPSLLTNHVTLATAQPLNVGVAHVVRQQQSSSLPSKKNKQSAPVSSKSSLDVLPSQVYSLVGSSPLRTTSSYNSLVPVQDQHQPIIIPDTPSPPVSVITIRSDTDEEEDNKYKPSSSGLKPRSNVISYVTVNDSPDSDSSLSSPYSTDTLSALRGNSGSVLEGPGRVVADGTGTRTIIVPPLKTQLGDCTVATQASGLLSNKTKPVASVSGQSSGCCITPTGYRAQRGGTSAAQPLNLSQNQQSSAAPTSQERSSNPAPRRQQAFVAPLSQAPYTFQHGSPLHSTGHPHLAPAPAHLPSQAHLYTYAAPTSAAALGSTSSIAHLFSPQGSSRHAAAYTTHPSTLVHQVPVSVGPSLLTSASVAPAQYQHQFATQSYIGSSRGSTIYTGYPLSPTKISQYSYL
T3 sequence (P15056 whole entry V600E): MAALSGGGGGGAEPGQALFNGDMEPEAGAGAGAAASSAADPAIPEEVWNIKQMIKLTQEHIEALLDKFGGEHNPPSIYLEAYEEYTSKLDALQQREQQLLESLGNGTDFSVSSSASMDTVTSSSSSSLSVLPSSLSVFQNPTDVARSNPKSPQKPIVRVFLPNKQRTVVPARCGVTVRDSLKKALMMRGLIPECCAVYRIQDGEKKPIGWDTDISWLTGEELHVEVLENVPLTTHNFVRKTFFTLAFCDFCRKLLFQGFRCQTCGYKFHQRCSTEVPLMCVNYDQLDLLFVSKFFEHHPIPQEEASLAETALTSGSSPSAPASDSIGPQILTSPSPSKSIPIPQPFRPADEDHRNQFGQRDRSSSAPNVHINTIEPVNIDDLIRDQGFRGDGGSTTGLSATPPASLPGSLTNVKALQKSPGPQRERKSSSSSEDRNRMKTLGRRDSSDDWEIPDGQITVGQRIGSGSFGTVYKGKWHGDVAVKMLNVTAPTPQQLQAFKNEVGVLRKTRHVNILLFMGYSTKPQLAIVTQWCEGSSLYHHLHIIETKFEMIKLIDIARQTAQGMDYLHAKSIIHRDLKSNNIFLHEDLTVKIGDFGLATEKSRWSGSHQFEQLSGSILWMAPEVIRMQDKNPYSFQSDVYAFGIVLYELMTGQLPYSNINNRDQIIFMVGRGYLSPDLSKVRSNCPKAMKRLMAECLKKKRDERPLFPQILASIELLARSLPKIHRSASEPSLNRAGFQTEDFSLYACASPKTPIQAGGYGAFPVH
T17 sequence (P10721 26-976): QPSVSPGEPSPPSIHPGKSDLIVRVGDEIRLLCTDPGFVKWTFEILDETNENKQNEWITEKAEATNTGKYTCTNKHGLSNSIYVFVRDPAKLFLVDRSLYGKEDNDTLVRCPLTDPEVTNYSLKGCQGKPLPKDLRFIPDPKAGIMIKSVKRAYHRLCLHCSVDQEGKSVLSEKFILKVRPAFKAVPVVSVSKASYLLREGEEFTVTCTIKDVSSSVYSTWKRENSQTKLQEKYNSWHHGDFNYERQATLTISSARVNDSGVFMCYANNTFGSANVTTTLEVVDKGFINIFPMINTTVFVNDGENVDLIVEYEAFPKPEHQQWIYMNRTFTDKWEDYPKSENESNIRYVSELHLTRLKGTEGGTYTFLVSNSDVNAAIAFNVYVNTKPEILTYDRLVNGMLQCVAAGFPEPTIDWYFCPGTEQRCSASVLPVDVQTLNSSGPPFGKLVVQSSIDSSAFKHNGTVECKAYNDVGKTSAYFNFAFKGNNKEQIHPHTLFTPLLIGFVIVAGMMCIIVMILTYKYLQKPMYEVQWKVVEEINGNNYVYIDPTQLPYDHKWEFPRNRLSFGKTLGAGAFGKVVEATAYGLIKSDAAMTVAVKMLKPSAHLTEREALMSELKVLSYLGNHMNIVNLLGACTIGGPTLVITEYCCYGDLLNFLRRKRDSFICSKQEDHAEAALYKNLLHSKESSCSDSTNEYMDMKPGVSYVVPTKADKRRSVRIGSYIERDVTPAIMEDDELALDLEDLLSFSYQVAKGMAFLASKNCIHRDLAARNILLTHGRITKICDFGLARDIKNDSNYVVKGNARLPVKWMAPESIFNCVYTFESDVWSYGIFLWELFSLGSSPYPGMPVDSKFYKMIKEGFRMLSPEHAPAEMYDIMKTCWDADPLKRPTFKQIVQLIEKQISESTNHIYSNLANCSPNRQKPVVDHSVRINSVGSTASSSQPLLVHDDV
T33 sequence (Q15349 389-733 limits assumed): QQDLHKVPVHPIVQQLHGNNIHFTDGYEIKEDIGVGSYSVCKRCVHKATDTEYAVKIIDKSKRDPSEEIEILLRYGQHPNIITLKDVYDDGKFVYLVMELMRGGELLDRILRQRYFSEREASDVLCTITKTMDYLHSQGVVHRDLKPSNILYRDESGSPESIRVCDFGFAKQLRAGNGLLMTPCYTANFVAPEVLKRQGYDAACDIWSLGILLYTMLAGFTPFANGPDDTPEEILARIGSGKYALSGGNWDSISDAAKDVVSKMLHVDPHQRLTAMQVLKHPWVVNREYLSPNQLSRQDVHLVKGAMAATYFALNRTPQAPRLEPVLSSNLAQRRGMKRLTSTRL
T8 sequence (P49760 whole entry): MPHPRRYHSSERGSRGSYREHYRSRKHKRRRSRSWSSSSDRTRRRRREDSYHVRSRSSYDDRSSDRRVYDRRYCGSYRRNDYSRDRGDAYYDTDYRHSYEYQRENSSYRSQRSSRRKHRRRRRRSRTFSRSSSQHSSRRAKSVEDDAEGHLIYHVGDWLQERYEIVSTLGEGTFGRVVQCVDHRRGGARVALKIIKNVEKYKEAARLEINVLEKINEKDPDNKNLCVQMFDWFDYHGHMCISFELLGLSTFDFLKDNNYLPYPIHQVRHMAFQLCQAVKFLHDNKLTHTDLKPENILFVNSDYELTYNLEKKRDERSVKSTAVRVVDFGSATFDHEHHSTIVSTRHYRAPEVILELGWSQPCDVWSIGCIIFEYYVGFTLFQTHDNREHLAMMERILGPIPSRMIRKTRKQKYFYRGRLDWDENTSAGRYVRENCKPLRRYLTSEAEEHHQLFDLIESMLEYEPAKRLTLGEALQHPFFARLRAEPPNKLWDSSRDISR
T7 sequence (Q8TDX7 whole entry): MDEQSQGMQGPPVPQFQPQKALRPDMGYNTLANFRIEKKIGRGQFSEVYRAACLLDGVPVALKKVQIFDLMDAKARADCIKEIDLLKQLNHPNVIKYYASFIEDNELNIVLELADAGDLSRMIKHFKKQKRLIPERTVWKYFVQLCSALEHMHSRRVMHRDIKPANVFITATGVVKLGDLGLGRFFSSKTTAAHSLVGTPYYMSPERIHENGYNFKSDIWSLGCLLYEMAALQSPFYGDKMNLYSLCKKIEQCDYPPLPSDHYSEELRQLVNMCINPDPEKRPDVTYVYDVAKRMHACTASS
T9 sequence (Q8N568 whole entry): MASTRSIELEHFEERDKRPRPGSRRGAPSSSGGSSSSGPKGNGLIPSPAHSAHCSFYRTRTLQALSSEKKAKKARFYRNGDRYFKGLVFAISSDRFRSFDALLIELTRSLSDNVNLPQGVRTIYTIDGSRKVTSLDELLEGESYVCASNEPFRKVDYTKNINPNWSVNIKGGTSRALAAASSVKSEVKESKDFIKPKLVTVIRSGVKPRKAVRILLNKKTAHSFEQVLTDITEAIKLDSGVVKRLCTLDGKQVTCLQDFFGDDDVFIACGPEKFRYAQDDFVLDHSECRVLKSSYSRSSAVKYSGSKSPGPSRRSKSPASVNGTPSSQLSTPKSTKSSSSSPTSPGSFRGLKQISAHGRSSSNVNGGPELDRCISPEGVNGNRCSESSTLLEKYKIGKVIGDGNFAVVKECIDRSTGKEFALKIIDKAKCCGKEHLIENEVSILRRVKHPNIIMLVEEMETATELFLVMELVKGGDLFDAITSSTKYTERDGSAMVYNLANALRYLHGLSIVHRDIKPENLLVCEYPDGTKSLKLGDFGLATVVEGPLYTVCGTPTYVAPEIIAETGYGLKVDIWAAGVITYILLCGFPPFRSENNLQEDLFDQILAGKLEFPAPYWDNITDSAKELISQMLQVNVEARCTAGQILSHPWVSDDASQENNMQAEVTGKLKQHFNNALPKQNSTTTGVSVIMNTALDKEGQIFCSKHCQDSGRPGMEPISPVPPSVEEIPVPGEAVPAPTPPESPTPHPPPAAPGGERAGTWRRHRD
T11 sequence (P10721 26-976 V559D/V654A): as the sequence (P10721 26-976) above, with V534D, V629A counted along it

In the case of `Cc1cccc(-c2cnc3occ(-c4ccc(C(=O)O)c(C5CCCC5)c4)c3c2)c1` [SGC-CAMKK2-1 (YL-36)], the remaining binding at 1 µM (CHEK1) is reported as 93%, the remaining binding at 1 µM (GRK2) is reported as 100% and the remaining binding at 1 µM (BRAF(V600E)) is reported as 100%. It also gave a remaining binding at 1 µM (TLK2) of 100%, a remaining binding at 1 µM (MET) of 92% and a remaining binding at 1 µM (PIK3CA(E545K)) of 94%. The remaining binding at 1 µM (NEK7) was 100%, the remaining binding at 1 µM (CLK2) was 79% and the remaining binding at 1 µM (DCAMKL2) was 94%. The remaining binding at 1 µM (DDR1) was 98%, the remaining binding at 1 µM (KIT(V559D,V654A)) was 100% and the remaining binding at 1 µM (PRKCD) was 100%. The remaining binding at 1 µM (CDK11) was 98% and the remaining binding at 1 µM (PKN1) was 84%.
In the case of `O=C(O)c1ccc(-c2coc3ncc(-c4ccccc4)cc23)cc1Cl` [SGC-CAMKK2-1N (UNC-YL-83)], the remaining binding at 1 µM (TGFBR2) is reported as 100%, the remaining binding at 1 µM (YSK1) is reported as 66% and the remaining binding at 1 µM (KIT) is reported as 89%. The remaining binding at 1 µM (MLK1) was 82%, the remaining binding at 1 µM (EPHB4) was 56% and the remaining binding at 1 µM (FLT3(R834Q)) was 84%. For the same compound, the remaining binding at 1 µM (TIE1) was 100%, the remaining binding at 1 µM (RAF1) was 79% and the remaining binding at 1 µM (MST3) was 100%. It also gave a remaining binding at 1 µM (FLT1) of 76%, a remaining binding at 1 µM (HIPK1) of 44% and a remaining binding at 1 µM [1] of 65%. For the same compound, the remaining binding at 1 µM (AAK1) was 87%, the remaining binding at 1 µM [2] was 99% and the remaining binding at 1 µM (TIE2) was 79%. The remaining binding at 1 µM (MET(M1250T)) was 100%, the remaining binding at 1 µM (ERK4) was 58% and the remaining binding at 1 µM (INSRR) was 96%. The remaining binding at 1 µM [3] was 91% and the remaining binding at 1 µM (TBK1) was 64%.
